How the values were obtained:
AE-17 = assay: MTT viability assay (IC50); type: cell-based, mouse; conditions: AE-17, ~60% confluency
Text: The following cell lines used in this study were obtained from ATCC, unless specified otherwise: Human T lymphoma cells Jurkat, human mesothelioma cells Meso-I, MM-BI, Ist-Mes, Ist-Mes-2 (Pass, H. I. et al. Characteristics of nine newly derived mesothelioma cell lines. Ann. Thorac. Surg. 59, 835-844 (1995)), human breast cancer cells MCF-7 (erbB2-low) and MDA-MB-453 (erbB2-high), human colorectal cells HCT-116, human hepatocarcinoma cells Huh-7, mouse mesothelioma cells AE17 (Jackaman, C. et al. IL-2 intratumoral immunotherapy enhances CD8+ T cells that mediate destruction of tumor cells and tumor-associated vasculature: a novel mechanism for IL-2. J. Immunol. […]
(§1) Toxicity of α-TOS, VE11S (“VES”), MitoVE3S, MitoVE5S, MitoVE7S, MitoVE9S, MitoVE11S (“MitoVES”), MitoVE11AE (“MitoVEAE”), MitoVE11F (“MitoVEF”), MitoVE11M (“MitoVEM”), and VES4TPP towards cancer cells was assessed on the basis of IC50, as detailed in Turanek, J., et al. ((2008). Liposomal formulation of vitamin E analogs as an efficient and selective anti-cancer treatment. Clin. Cancer Res. (submitted)). […]

malignant cells = assay: Apoptosis assays of FIG. 2 (Annexin V method); type: cell-based
Protocol: Jurkat (A, G), HCT-116 (B), MCF-7 (C), MDA-MB-453 (D), and Meso-2 cells (E) were exposed to MitoVES at concentrations 1-50 μM (A-F), or to VES4TPP or α-TOS at 50 μM (B). At the times shown, the cells were harvested and assessed for apoptosis. […] Apoptosis data shown are derived from three independent experiments and are presented as mean values±S.D., the micrographs are representative images of at least three independent experiments.
as §1

[1] = system: Bax/Bak double knockout Jurkat cell line; assay: Apoptosis assay of FIG. 3B; type: cell-based, human; conditions: α-TOS 50 μM, MitoVES 5 μM
Protocol: 3B—Parental, Bax^−/− and […] Jurkat cells were exposed to α-TOS (T) at 50 μM and MitoVES (M) 5 μM, and apoptosis assessed.
Toxicity of α-TOS, VE11S (“VES”), MitoVE3S, MitoVE5S, MitoVE7S, MitoVE9S, MitoVE11S (“MitoVES”), MitoVE11AE (“MitoVEAE”), MitoVE11F (“MitoVEF”), MitoVE11M (“MitoVEM”), and VES4TPP towards cancer cells was assessed on the basis of IC50, as detailed in Turanek, J., et al. ((2008). Liposomal formulation of vitamin E analogs as an efficient and selective anti-cancer treatment. Clin. Cancer Res. (submitted)). Apoptosis was assessed using the Annexin V method (Weber, T. et al. Mitochondria play a central role in apoptosis induced by α-tocopheryl succinate, an agent with anticancer activity. Comparison with receptor-mediated pro-apoptotic signaling. Biochemistry 42, 4277-4291 (2003)) and dissipation of the mitochondrial inner transmembrane potential was estimated using the polychromatic probe JC-1 (Molecular Probes) (Weber, T. et al. Mitochondria play a central role in apoptosis induced by α-tocopheryl succinate, an agent with anticancer activity. Comparison with receptor-mediated pro-apoptotic signaling. Biochemistry 42, 4277-4291 (2003)).

EAhy926 cells = conditions: level taken from Dong et al, Cancer Res 2007; cited from earlier work

Row | Structure (SMILES) | IC50 (AE-17) | apoptosis in malignant versus normal equivalent cell types (malignant cells; FIG. 2, exception dividing endothelial cells) | fold more apoptogenic / more active than α-TOS in cancer cells (malignant cells; relative to α-TOS) | apoptosis in Bax/Bak double deficient Jurkat cells [1] | concentration needed for comparable levels of effects on endothelial cells (EAhy926 cells)
1 | Cc1c(C)c2c(c(C)c1OC(=O)CCC(=O)[O-])CCC(C)(CCCCCCCCCCC[P+](c1ccccc1)(c1ccccc1)c1ccccc1)O2 (stereo not shown) [MitoVE11S] | 3.1 ± 0.7 µM | causes apoptosis selectively in malignant cells | up to 50 fold | extremely resistant | 
2 | Cc1c(C)c2c(c(C)c1OC(=O)CCC(=O)O)CC[C@@](C)(CCC[C@H](C)CCC[C@H](C)CCCC(C)C)O2 [α-TOS, α-tocopheryl succinate, reference compound] | 33 ± 5 µM |  |  | still mediates some level of killing | 25 to 50 µM

Reference: patent publication US8598145B2, “Mitochondrially delivered anti-cancer compounds” (priority 2008, dated 2013)
